The test system of this assay is SPI1 type III protein secretion system (SopE'-'Bla secretion). As to the kind of experiment: Primary assay: Type III protein secretion of the chimeric SopE'-'Bla polypeptide by Salmonella enterica. In kind it is cell-based. The following applies: read-out: SopE IC50. The source says:
Primary assay: Type III protein secretion of the chimeric SopE′-'Bla polypeptide by Salmonella enterica. This procedure is a cell-based assay that measures the type III-dependent secretion by Salmonella enterica of a plasmid-encoded chimeric polypeptide whose synthesis can be regulated, and which is endowed with an enzymatic activity that can be monitored […] by hydrolysis of a substrate that is unable to penetrate into the bacterial cytoplasm within the time constraints of the reaction. Thus, the colorimetric reaction is not influenced by SopE′-'Bla polypeptide in the bacterial cytoplasm. Instead, it effectively measures the amount of polypeptide that has been secreted from the S. enterica cytoplasm to the extracellular medium via type III system protein secretion.
The SopE′-' Bla recombinant polypeptide consists of two functionally distinct domains spliced together. The N-terminus domain is encoded by a polynucleotide region specifying the signal for type III secretion of the SopE polypeptide of S. enterica, an effector of the SPI1 type III protein secretion system. The C-terminus domain of SopE′-'Bla consists of a 263 amino acid peptide sequence that corresponds to the TEM-1 β-lactamase expressed by plasmid pBR322 but without its N-terminal signal sequence. The TEM-1 β-lactamase part of the SopE′-'Bla chimeric polypeptide is used as a reporter enzyme. It is capable of hydrolyzing nitrocefin resulting in a product whose accumulation can be monitored by colorimetric detection. The secretion of the SopE′-'Bla chimeric polypeptide from the cytoplasm to the extracellular medium is dependent on type III protein secretion.
For this procedure, cells grown under conditions known to favor a functional SPI1 secretion system are induced for expression of the SopE′-'Bla protein and grown either in the presence or in the absence of putative inhibitors for determined time. Nitrocefin is then added to the various cultures and its hydrolysis are used for quantitation. An inhibitor of Type III protein secretion is generally a compound that reduces the signal of the enzymatic reaction by decreasing the amount of SopE′-'Bla secreted into the extracellular medium.

Consider `O=C(N[C@@H](CSCc1ccccc1)C(=O)O)c1nc(-c2ccc(C(F)(F)F)cc2)sc1-c1ccc(-c2ccccc2)cc1` [Compound 2, (R)-3-Benzylsulfanyl-2-{[5-biphenyl-4-yl-2-(4-trifluoromethylphenyl)thiazole-4-carbonyl]amino}propionic acid], for which the 50% inhibitory concentration (IC50) (usually the concentration needed to halve the response being measured) stood at 16.5 µM.
With `O=C(N[C@@H](COCc1ccccc1)C(=O)O)c1nc(-c2ccc(-c3ccccc3)cc2)oc1-c1ccc(Cl)c(Cl)c1` [Compound 6, (S)-3-Benzyloxy-2-{[2-biphenyl-4-yl-5-(3,4-dichlorophenyl)oxazole-4-carbonyl]amino}propionic acid] the figure was 25.6 µM.
The figure for `O=C(N[C@@H](CSCc1ccccc1)C(=O)O)c1nc(-c2ccc(C(F)(F)F)cc2)oc1-c1cnc2ccccc2n1` [Compound 11, (R)-3-Benzylsulfanyl-2-{[5-quinoxalin-2-yl-2-(4-trifluoromethylphenyl)oxazole-4-carbonyl]amino}propionic acid] is 42.2 µM.
The figure for `O=C(N[C@@H](CSCc1ccccc1)C(=O)O)c1nc(-c2ccc(C(F)(F)F)cc2)oc1-c1ccc(-c2ccsc2)cc1` [Compound 20, (R)-3-Benzylsulfanyl-2-{[5-(4-thien-3-yl-phenyl)-2-(4-trifluoromethylphenyl)oxazole-4-carbonyl]amino}propionic acid] is 3.3 µM.
On to `O=C(N[C@@H](CSCc1ccccc1)C(=O)O)c1nc(-c2ccc(C(F)(F)F)cc2)oc1-c1ccc(-c2nccs2)cc1` [Compound 21, (R)-3-Benzylsulfanyl-2-{[5-(4-thiazol-2-yl-phenyl)-2-(4-trifluoromethylphenyl)oxazole-4-carbonyl]amino}propionic acid], for which the IC50 was found to be 3.1 µM.
The figure for `O=C(N[C@@H](COCc1ccccc1)C(=O)O)c1nc(-c2ccc(C(F)(F)F)cc2)oc1-c1cccnc1Cl` [Compound 24, (S)-3-Benzyloxy-2-{[5-(2-chloropyridin-3-yl)-2-(4-trifluoromethylphenyl)oxazole-4-carbonyl]amino}propionic acid] is 80.5 µM.
With `O=C(N[C@@H](CSCc1ccccc1)C(=O)O)c1nc(-c2ccc(C(F)(F)F)cc2)oc1-c1cccnc1Cl` [Compound 25, (R)-3-Benzylsulfanyl-2-{[5-(2-chloropyridin-3-yl)-2-(4-trifluoromethylphenyl)oxazole-4-carbonyl]amino}propionic acid] the figure was 62.6 µM; with `O=C(N[C@@H](CSCc1ccccc1)C(=O)O)c1nc(-c2ccc(C(F)(F)F)cc2)oc1-c1ccc2ccccc2n1` [Compound 26, (R)-3-Benzylsulfanyl-2-{[5-quinolin-2-yl-2-(4-trifluoromethylphenyl)oxazole-4-carbonyl]amino}propionic acid], 5.8 µM.
The figure for `O=C(N[C@@H](Cc1ccc(Cl)cc1)C(=O)O)c1nc(-c2ccc(C(F)(F)F)cc2)oc1-c1ccc2ccccc2n1` [Compound 28, (S)-3-(4-Chlorophenyl)-2-{[5-quinolin-2-yl-2-(4-trifluoromethylphenyl)oxazole-4-carbonyl]amino}propionic acid] is 3.6 µM; for `O=C(N[C@@H](C[S+]([O-])Cc1ccccc1)C(=O)O)c1nc(-c2ccc(C(F)(F)F)cc2)oc1-c1cccnc1N1CCCCC1` (stereo partly drawn) [Compound 30, (R)-3-Phenylmethanesulfinyl-2-{[5-(3,4,5,6-tetrahydro-2H-[1,2′]bipyridin-3′-yl)-2-(4-trifluoromethylphenyl)oxazole-4-carbonyl]amino}propionic acid] it is 29.2 µM.
For the compound `O=C(N[C@@H](CS(=O)(=O)Cc1ccccc1)C(=O)O)c1nc(-c2ccc(C(F)(F)F)cc2)oc1-c1cccnc1N1CCCCC1` [Compound 31, (R)-3-Phenylmethanesulfonyl-2-{[5-(3,4,5,6-tetrahydro-2H-[1,2′]bipyridin-3′-yl)-2-(4-trifluoromethylphenyl)oxazole-4-carbonyl]amino}propionic acid], the IC50 came out at 71.5 µM.
The figure for `CC(=O)N1CCN(c2ncccc2-c2oc(-c3ccc(C(F)(F)F)cc3)nc2C(=O)NC(Cc2ccc(Cl)cc2)C(=O)O)CC1` (stereo not drawn) [Compound 32, 2-{[5-[2-(4-Acetylpiperazin-1-yl)pyridin-3-yl]-2-(4-trifluoromethylphenyl)oxazole-4-carbonyl]amino}-3-(4-chlorophenyl)propionic acid] is 77.3 µM; for `O=C(NC(CSCc1ccccc1)C(=O)O)c1nc(-c2ccc(Oc3ccccc3)cc2)oc1-c1ccc(Cl)nc1Cl` (stereo not drawn) [Compound 36, 3-Benzylsulfanyl-2-{[5-(2,6-dichloropyridin-3-yl)-2-(4-phenoxyphenyl)oxazole-4-carbonyl]amino}propionic acid] it is 3.3 µM; for `O=C(NC(Cc1ccc(Cl)cc1)C(=O)O)c1nc(-c2ccc(Oc3ccccc3)cc2)oc1-c1ccc(Cl)nc1Cl` (stereo not drawn) [Compound 38, 3-(4-Chlorophenyl)-2-{[5-(2,6-dichloropyridin-3-yl)-2-(4-phenoxyphenyl)oxazole-4-carbonyl]amino}propionic acid] it is 2.4 µM.
The figure for `O=C(N[C@@H](CSCc1ccccc1)C(=O)O)c1nc(-c2ccc(Oc3ccccc3)cc2)oc1-c1cnc(Cl)c(Cl)c1` [Compound 39, (R)-3-Benzylsulfanyl-2-{[5-(5,6-dichloropyridin-3-yl)-2-(4-phenoxyphenyl)oxazole-4-carbonyl]amino}propionic acid] is 9.1 µM; for `O=C(N[C@@H](COCc1ccccc1)C(=O)O)c1nc(-c2ccc(Oc3ccccc3)cc2)oc1-c1cnc(Cl)c(Cl)c1` [Compound 40, (S)-3-Benzyloxy-2-{[5-(5,6-dichloropyridin-3-yl)-2-(4-phenoxyphenyl)oxazole-4-carbonyl]amino}propionic acid] it is 5.2 µM; for `O=C(N[C@@H](COCc1ccccc1)C(=O)O)c1nc(-c2ccc(-c3ccccc3)cc2)oc1-c1cnc(Cl)c(Cl)c1` [Compound 44, (S)-3-Benzyloxy-2-{[2-biphenyl-4-yl-5-(5,6-dichloropyridin-3-yl)oxazole-4-carbonyl]amino}propionic acid] it is 3.3 µM.
In the case of `Cn1cc(-c2oc(-c3ccc(C(F)(F)F)cc3)nc2C(=O)N[C@@H](CSCc2ccccc2)C(=O)O)c2ccccc21` [Compound 46, (R)-3-Benzylsulfanyl-2-{[5-(1-methyl-1H-indol-3-yl)-2-(4-trifluoromethylphenyl)oxazole-4-carbonyl]amino}propionic acid], the IC50 worked out at 47.3 µM.
The figure for `Cn1cc(-c2oc(-c3ccc(C(F)(F)F)cc3)nc2C(=O)N[C@@H](COCc2ccccc2)C(=O)O)c2ccccc21` [Compound 47, (S)-3-Benzyloxy-2-{[5-(1-methyl-1H-indol-3-yl)-2-(4-trifluoromethylphenyl)oxazole-4-carbonyl]amino}propionic acid] is 54 µM; for `N=C(NO)c1ccc(-c2oc(-c3ccc(C(F)(F)F)cc3)nc2C(=O)N[C@@H](CSCc2ccccc2)C(=O)O)cc1` [Compound 49, (R)-3-Benzylsulfanyl-2-{[5-[4-(N-hydroxycarbamimidoyl)phenyl]-2-(4-trifluoromethylphenyl)oxazole-4-carbonyl]amino}propionic acid] it is 34.7 µM; for `O=C(N[C@@H](CSCc1ccccc1)C(=O)O)c1nc(-c2ccc(C(F)(F)F)cc2)oc1-c1ccc(-c2noc(C(F)(F)F)n2)cc1` [Compound 50, (R)-3-Benzylsulfanyl-2-{[5-[4-(5-trifluoromethyl[1,2,4]oxadiazol-3-yl)phenyl]-2-(4-trifluoromethylphenyl)oxazole-4-carbonyl]amino}propionic acid] it is 64.3 µM.

The values above are taken from patent US20050272784A1 (priority 2004, published 2005).
